These compounds were tested against Substance-P receptor (Rattus norvegicus, UniProt P14600) (assay: Binding affinity for tachykinin receptor 1 from rat forebrain tissue, [125I]-BH-SP as radioligand).
Sequence of Substance-P receptor (P14600 whole entry): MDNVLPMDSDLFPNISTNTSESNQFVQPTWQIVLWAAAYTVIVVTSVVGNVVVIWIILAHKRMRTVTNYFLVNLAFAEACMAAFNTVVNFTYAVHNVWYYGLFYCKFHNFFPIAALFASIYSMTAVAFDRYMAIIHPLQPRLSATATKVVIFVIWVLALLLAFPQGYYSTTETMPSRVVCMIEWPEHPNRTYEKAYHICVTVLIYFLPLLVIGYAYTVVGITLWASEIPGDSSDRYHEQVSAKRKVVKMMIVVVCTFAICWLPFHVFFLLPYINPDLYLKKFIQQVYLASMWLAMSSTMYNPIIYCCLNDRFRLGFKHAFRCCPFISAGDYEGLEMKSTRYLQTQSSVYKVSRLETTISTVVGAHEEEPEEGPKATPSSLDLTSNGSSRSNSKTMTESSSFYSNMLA

IC50 [nM] | Compound
410 | CCn1c(/C=C/C=C2/N(C)c3ccccc3C2(C)C)[n+](CCCOC(C)=O)c2nc3ccccc3nc21
350 | CCn1c(/C=C/C=C2/N(C)c3ccccc3C2(C)C)[n+](CCCO)c2nc3ccccc3nc21
850 | CCn1c(/C=C/C=C2\C3C=CCc4cccc(c43)N2C)[n+](CC)c2nc3ccccc3nc21 (stereo not given)
390 | CCN1/C(=C/C=C/c2n(CC)c3nc4ccccc4nc3[n+]2CC)C(C)(C)c2ccccc21
> 10000 | CCn1c(/C=C/C=C/N2CCCC2)[n+](CC)c2nc3ccccc3nc21
1000 | CCn1c(/C=C/C=C2/N(CCO)c3ccccc3C2(C)C)[n+](CC)c2nc3ccccc3nc21
2600 | CCn1c(/C=C/C=C2/N(CC(=O)N(C)C)c3ccccc3C2(C)C)[n+](CC)c2nc3ccccc3nc21
700 | CCn1c(/C=C/C=C2\Sc3ccccc3N2C)[n+](CC)c2nc3ccccc3nc21
850 | CCOC(=O)CCC[n+]1c(/C=C/C=C2/N(C)c3ccccc3C2(C)C)n(CC)c2nc3ccccc3nc21
1100 | CCn1c(/C=C/C=C2/N(C)c3ccccc3C2(C)C)[n+](CC)c2nc3cc(Cl)c(Cl)cc3nc21
1300 | CCn1c(/C=C/C=C2/N(C)c3ccccc3C2(C)C)[n+](CCCN(C)C)c2nc3ccccc3nc21
1400 | CCn1c(/C=C/C=C2/N(C)c3ccccc3C2(C)C)[n+](CCCC(=O)O)c2nc3ccccc3nc21
2000 | CCn1c(/C=C/C=C2/N(C)c3ccccc3C2(C)C)[n+](CC(N)=O)c2nc3ccccc3nc21

Each compound was assayed against T1, Neuromedin-K receptor (Rattus norvegicus, UniProt P16177) (assay: Binding affinity of compound was evaluated towards tachykinin receptor 3 by using radioligand [[…]]eledoisin in rat cortex).
T1 sequence (P16177 whole entry): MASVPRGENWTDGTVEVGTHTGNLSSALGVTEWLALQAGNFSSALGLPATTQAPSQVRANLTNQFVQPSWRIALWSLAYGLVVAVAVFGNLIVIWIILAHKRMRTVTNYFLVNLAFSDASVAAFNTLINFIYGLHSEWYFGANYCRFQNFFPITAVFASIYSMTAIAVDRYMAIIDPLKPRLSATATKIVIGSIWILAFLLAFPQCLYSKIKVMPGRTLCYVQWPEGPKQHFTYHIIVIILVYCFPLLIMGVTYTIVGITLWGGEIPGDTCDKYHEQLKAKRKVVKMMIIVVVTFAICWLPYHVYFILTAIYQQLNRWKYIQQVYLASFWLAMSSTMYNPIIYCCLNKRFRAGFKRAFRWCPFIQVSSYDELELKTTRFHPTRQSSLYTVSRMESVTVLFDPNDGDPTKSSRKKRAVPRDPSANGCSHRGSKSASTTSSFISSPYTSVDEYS

IC50 [µM] | Compound
3.3 | CCn1c(/C=C/C=C2\N(C)c3ccccc3C2(C)C)[n+](CC)c2nc3ccccc3nc21

The compounds below were run against T2, Substance-K receptor (Rattus norvegicus, UniProt P16610) (assay: Binding affinity of compound was evaluated towards tachykinin receptor 2 by using radioligand ([125I]-NKA in rat duodenum).
T2 sequence (P16610 whole entry): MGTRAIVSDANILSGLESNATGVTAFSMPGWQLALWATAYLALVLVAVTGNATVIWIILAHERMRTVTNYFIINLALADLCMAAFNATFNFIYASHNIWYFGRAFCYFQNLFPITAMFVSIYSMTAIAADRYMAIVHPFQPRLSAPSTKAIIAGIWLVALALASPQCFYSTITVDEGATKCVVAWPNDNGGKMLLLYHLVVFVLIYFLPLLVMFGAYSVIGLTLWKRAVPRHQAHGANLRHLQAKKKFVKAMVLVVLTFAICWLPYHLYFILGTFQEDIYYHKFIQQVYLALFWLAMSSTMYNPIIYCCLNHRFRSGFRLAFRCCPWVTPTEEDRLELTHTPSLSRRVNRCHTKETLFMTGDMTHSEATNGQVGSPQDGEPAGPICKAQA

IC50 [nM] | Compound
1700 | CCn1c(/C=C/C=C2\N(C)c3ccccc3C2(C)C)[n+](CC)c2nc3ccccc3nc21
